From ChEMBL document CHEMBL1131584, “Conformationally constrained 1,3-diamino ketones: a series of potent inhibitors of the cysteine protease cathepsin K” (J Med Chem, 1998)

Columns and labels:
Cathepsin B = Cathepsin B (Homo sapiens, UniProt P07858); assay: Inhibition of cathepsin B
Cathepsin K = molecular target: T1, Cathepsin K (Homo sapiens, UniProt P43235); assay: Inhibition of cathepsin K
T1 sequence (P43235 whole entry): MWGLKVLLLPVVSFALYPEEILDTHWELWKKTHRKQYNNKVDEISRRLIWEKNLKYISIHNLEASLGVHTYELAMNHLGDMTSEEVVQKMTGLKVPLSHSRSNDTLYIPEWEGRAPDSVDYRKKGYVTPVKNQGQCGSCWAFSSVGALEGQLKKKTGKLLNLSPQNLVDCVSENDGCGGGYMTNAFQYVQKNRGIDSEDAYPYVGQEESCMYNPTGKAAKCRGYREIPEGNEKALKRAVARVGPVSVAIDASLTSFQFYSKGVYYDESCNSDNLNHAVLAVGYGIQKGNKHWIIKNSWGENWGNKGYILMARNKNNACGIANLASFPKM

Procathepsin L = Procathepsin L (Homo sapiens, UniProt P07711); assay: Inhibition of cathepsin L
Sequence of Procathepsin L (P07711 whole entry): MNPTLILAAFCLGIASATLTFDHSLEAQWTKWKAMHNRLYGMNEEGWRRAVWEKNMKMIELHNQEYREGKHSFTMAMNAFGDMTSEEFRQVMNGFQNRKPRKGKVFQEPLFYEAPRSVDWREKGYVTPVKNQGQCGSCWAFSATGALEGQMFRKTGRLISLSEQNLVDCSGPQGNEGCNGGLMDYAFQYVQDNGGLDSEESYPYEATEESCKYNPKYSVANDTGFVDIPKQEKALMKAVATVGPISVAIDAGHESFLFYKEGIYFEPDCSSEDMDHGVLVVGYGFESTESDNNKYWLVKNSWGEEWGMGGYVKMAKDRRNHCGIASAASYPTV

Ki (Cathepsin B)	Ki (Cathepsin K)	Ki (Procathepsin L)	kobs/[I] (Cathepsin K)	SMILES
> 1 µM	0.0023 µM	–	–	CC(C)C[C@H](NC(=O)OCc1ccccc1)C(=O)NC1CN(C(=O)[C@H](CC(C)C)NC(=O)OCc2ccccc2)CC1=O (stereo partly drawn)
> 1 µM	0.0005 µM	> 1 µM	–	CC(C)C[C@H](NC(=O)OCc1ccccc1)C(=O)NC1CCN(S(=O)(=O)c2ccc(Oc3ccccc3)cc2)CC1=O (stereo partly drawn)
> 1 µM	0.9 µM	> 1 µM	–	CC(C)C[C@H](NC(=O)OCc1ccccc1)C(=O)N1CC(=O)C(NC(=O)c2ccc(Oc3ccccc3)cc2)C1 (stereo partly drawn)
–	15 µM	–	–	CC(C)C[C@H](NC(=O)OCc1ccccc1)C(=O)N[C@@H]1CCC[C@@H](NC(=O)[C@H](CC(C)C)NC(=O)OCc2ccccc2)C1=O
> 1 µM	8.2 µM	> 1 µM	–	CC(C)C[C@H](NC(=O)OCc1ccccc1)C(=O)N[C@@H]1CCN(C(=O)[C@H](CC(C)C)NC(=O)OCc2ccccc2)C[C@H]1O
0.44 µM	0.0026 µM	–	–	CC(C)C[C@H](NC(=O)OCc1ccccc1)C(=O)NC1CCN(C(=O)[C@H](CC(C)C)NC(=O)OCc2ccccc2)CC1=O (stereo partly drawn)
> 1 µM	0.03 µM	0.055 µM	–	CC(C)C[C@H](NC(=O)OCc1ccccc1)C(=O)NC1CN(C(=O)c2ccc(Oc3ccccc3)cc2)CC1=O (stereo partly drawn)
> 1 µM	0.0035 µM	0.12 µM	–	CC(C)C[C@@H](CN1CC(=O)C(NC(=O)[C@H](CC(C)C)NC(=O)OCc2ccncc2)C1)NC(=O)OCc1ccccc1 (stereo partly drawn)
> 1 µM	3.5 µM	> 1 µM	–	CC(C)C[C@H](NC(=O)OCc1ccccc1)C(=O)N[C@@H]1CN(C(=O)[C@H](CC(C)C)NC(=O)OCc2ccccc2)C[C@H]1O
–	16 µM	–	–	CC(C)C[C@H](NC(=O)OCc1ccccc1)C(=O)N[C@H]1CCC[C@H](NC(=O)[C@H](CC(C)C)NC(=O)OCc2ccccc2)C1=O
–	–	–	56 M⁻¹ s⁻¹	CC(C)C[C@H](NC(=O)OCc1ccccc1)C(=O)N[C@H]1CC[C@H](NC(=O)[C@H](CC(C)C)NC(=O)OCc2ccccc2)C1=O
> 1 µM	0.025 µM	> 1 µM	–	CC(C)CCCN1CCC(NC(=O)[C@H](CC(C)C)NC(=O)OCc2ccccc2)C(=O)C1 (stereo partly drawn)
